Laboratory results reported in PubChem BioAssay AID1963865 (Molecular Pharmacology Branch, DTP, NCI, 2024).

System: KRAS PDC multicell spheroid viability
Test: Anticancer human tumor 825966-067-R-J1-PDC patient-derived colon carcinoma cell line growth inhibition [KRAS2]
Conditions: for IC50: curve of first compound; for viability, T/C: stronger effect = lower value
Outline: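 KRAS-mutant tumor cells were grown as spheroids with HUVEC endothelial cells and human MSCs as stroma. Targeted agents were tested alone and with KRAS pathway inhibitors. Doses started at or near clinical Cmax, or 10 microM, descending half-log.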
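Further: spheroids exposed to compounds for 7 days.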
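Wherever viability, T/C is given: 100% = DMSO vehicle control viability.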

Q: Which results are given for `CC(=O)Nc1cccc(-n2c(=O)n(C3CC3)c(=O)c3c(Nc4ccc(I)cc4F)n(C)c(=O)c(C)c32)c1` + CC1OCC2(CCN(c3cnc(Sc4ccnc(N)c4Cl)c(N)n3)CC2)C1N?
A: IC50 (second compound 0.1 µM): > 31.6 nM; IC50 (second compound 0.316 µM): > 31.6 nM; IC50 (second compound 1 µM): 4.52 nM; IC50 (second compound 3.16 µM): 0.827 nM; IC50 (second compound 10 µM): 0.12 nM; viability, T/C (second compound 0.1 µM, first compound 0.0001 µM): 93.2%; viability, T/C (second compound 0.1 µM, first compound 0.000316 µM): 98.9%; viability, T/C (second compound 0.1 µM, first compound 0.001 µM): 125%; viability, T/C (second compound 0.1 µM, first compound 0.00316 µM): 103%; viability, T/C (second compound 0.1 µM, first compound 0.01 µM): 93.5%; viability, T/C (second compound 0.1 µM, first compound 0.0316 µM): 56.5%; viability, T/C (second compound 0.316 µM, first compound 0.0001 µM): 96.3%; viability, T/C (second compound 0.316 µM, first compound 0.000316 µM): 91.8%; viability, T/C (second compound 0.316 µM, first compound 0.001 µM): 110%; viability, T/C (second compound 0.316 µM, first compound 0.00316 µM): 116%; viability, T/C (second compound 0.316 µM, first compound 0.01 µM): 64.8%; viability, T/C (second compound 0.316 µM, first compound 0.0316 µM): 49.6%; viability, T/C (second compound 1 µM, first compound 0.0001 µM): 80.8%; viability, T/C (second compound 1 µM, first compound 0.000316 µM): 128%; viability, T/C (second compound 1 µM, first compound 0.001 µM): 105%; viability, T/C (second compound 1 µM, first compound 0.00316 µM): 61.2%; viability, T/C (second compound 1 µM, first compound 0.01 µM): 27.2%; viability, T/C (second compound 1 µM, first compound 0.0316 µM): 21.5%; viability, T/C (second compound 3.16 µM, first compound 0.0001 µM): 97.1%; viability, T/C (second compound 3.16 µM, first compound 0.000316 µM): 108%; viability, T/C (second compound 3.16 µM, first compound 0.001 µM): 39.6%; viability, T/C (second compound 3.16 µM, first compound 0.00316 µM): 28.2%; viability, T/C (second compound 3.16 µM, first compound 0.01 µM): 18.4%; viability, T/C (second compound 3.16 µM, first compound 0.0316 µM): 15.8%; viability, T/C (second compound 10 µM, first compound 0.0001 µM): 57.4%; viability, T/C (second compound 10 µM, first compound 0.000316 µM): 9.62%; viability, T/C (second compound 10 µM, first compound 0.001 µM): 7.27%; viability, T/C (second compound 10 µM, first compound 0.00316 µM): 6.92%; viability, T/C (second compound 10 µM, first compound 0.01 µM): 5.11%; viability, T/C (second compound 10 µM, first compound 0.0316 µM): 14.4%
